Patent US20250034116A1, “1,4-DIHETEROCYCLIC SUBSTITUTED AROMATIC RING OR AROMATIC HETEROCYCLIC COMPOUND AND USE THEREOF” (BeBetter Med Inc., priority 2022, published 2025)

How the values were obtained:
[1] = tested on: diet-induced obesity (DIO) mouse model; test: Experiment 4: weight loss of compound 2 compared with semaglutide in DIO mouse model; type: in vivo, Male C57BL/6J mice
Description: Experiment 4 was to compare the weight loss effects of compound 2 with that of semaglutide in a diet-induced obesity (DIO) mouse model. Male C57BL/6J mice were purchased from Vital River Laboratories (Shanghai) Co., Ltd. and housed in a barrier system animal facility. Animals were randomly divided into 4 groups: normal control group, DIO model control group, compound 2 treatment group, and semaglutide treatment group, with 6 animals per group. The model control group and treatment groups were first fed with high-fat diet (HFD) for 18 weeks, after which the treatment groups were administered with compound 2 or semaglutide, respectively. Compound 2 was administered orally at a dose of 30 mg/kg once daily for 14 consecutive weeks, while semaglutide was administered subcutaneously at a dose of 30 nmol/kg once daily. After 7 weeks of semaglutide treatment, the semaglutide treatment group was switched to compound 2 treatment for another 7 weeks.

[2] = tested on: 20-HETE; test: Experiment 6: level of 20-HETE in DIO rat model; type: in vivo, Male SD rats; conditions: DIO rats, single oral dose 25 mg/kg, 8 hours; most pronounced in the kidneys
Method: Experiment 6 was to investigate the effect of compound 2 on regulating the level of 20-HETE in a diet-induced obesity (DIO) rat model. Male SD rats were purchased from Guangdong Vital River Laboratory Animal Technology Co., Ltd. and housed in a barrier system animal facility. After 14 weeks of high-fat diet (HFD) induction, compound 2 was administered at a dose of 25 mg/kg once, and samples were collected after 8 hours to detect the level of 20-HETE. A solvent control group was also set up simultaneously, with 3 animals per group.

O=C1CCCN1CC1CCN(c2ccc(-c3cn[nH]c3)cc2F)CC1 [Compound 2, 1-((1-(2-fluoro-4-(1H-pyrazol-4-yl)phenyl)piperidin-4-yl)methyl)pyrrolidin-2-one]
maximum weight loss effect, decrease compared to pre-administration weight ([1]; 30 mg/kg orally once daily, after 6 weeks): approximately 36% | food intake ([1]; 30 mg/kg orally once daily, returned to control level in the 6th week): slightly decreased | body weight decrease, of pre-administration weight ([1]; 7 weeks semaglutide, then switched to compound 2 for 7 weeks): 33.6% | weight loss effect compared with semaglutide ([1]; DIO mouse model): greater weight loss effect than semaglutide | 20-HETE levels in the liver, kidneys, and brain tissues compared to the solvent control group [2]: varying degrees of decrease
